Test results from PubChem BioAssay AID1845197 (Molecular Pharmacology Branch, DTP, NCI, 2023).

System: 349418-098-R tumor spheroid viability
Assay: Anticancer human tumor 349418-098-R patient-derived lung adenocarcinoma cell line growth inhibition
Conditions: spheroids with HUVEC and MSC; for IC50: curve of first compound; for viability, T/C: stronger effect = lower value
Method in brief: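 Single agents and combinations were tested on spheroids built from tumor cells plus HUVEC and hMSC, at half-log dilutions starting at or near clinical Cmax, else 10 microM; final DMSO 0.25% (v/v).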

[1] = second compound 0.003 µM, first compound 0.0316 µM
[2] = second compound 0.003 µM, first compound 0.1 µM
[3] = second compound 0.003 µM, first compound 0.316 µM
[4] = second compound 0.003 µM, first compound 1 µM
[5] = second compound 0.003 µM, first compound 3.16 µM
[6] = second compound 0.003 µM, first compound 10 µM
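Note: spheroids exposed to compound for 7 days before measurement.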
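Throughout, for viability, T/C: percent of vehicle control viability with 100% = DMSO-treated spheroids.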

`Cc1cc(C)c(CNC(=O)c2cc(-c3ccc(CN4CCOCC4)cc3)cc3c2cnn3C2CCCC2)c(=O)[nH]1` + CC[C@@]1(O)C(=O)OCc2c1cc1n(c2=O)Cc2cc3c(CN(C)C)c(O)ccc3nc2-1 gave an IC50 (second compound 0.003 µM) of 6.59 µM, an IC50 (second compound 0.00949 µM) of 5.79 µM and an IC50 (second compound 0.03 µM) of 1.03 µM. The IC50 (second compound 0.0949 µM) was under 0.0316 µM, the IC50 (second compound 0.3 µM) was under 0.0316 µM and the viability, T/C [1] was 98.5%. For the same molecule, the viability, T/C [2] was 97.9%, the viability, T/C [3] was 94.8% and the viability, T/C [4] was 92.6%. It also gave a viability, T/C [5] of 89.3%, a viability, T/C [6] of 27.5% and a viability, T/C (second compound 0.00949 µM, first compound 0.0316 µM) of 93.4%. It also gave a viability, T/C (second compound 0.00949 µM, first compound 0.1 µM) of 95.7%, a viability, T/C (second compound 0.00949 µM, first compound 0.316 µM) of 88.9% and a viability, T/C (second compound 0.00949 µM, first compound 1 µM) of 84.4%. It also gave a viability, T/C (second compound 0.00949 µM, first compound 3.16 µM) of 71.9%, a viability, T/C (second compound 0.00949 µM, first compound 10 µM) of 31.4% and a viability, T/C (second compound 0.03 µM, first compound 0.0316 µM) of 73.4%. The viability, T/C (second compound 0.03 µM, first compound 0.1 µM) was 75.2%, the viability, T/C (second compound 0.03 µM, first compound 0.316 µM) was 62.4% and the viability, T/C (second compound 0.03 µM, first compound 1 µM) was 52.7%. It also gave a viability, T/C (second compound 0.03 µM, first compound 3.16 µM) of 26.4%, a viability, T/C (second compound 0.03 µM, first compound 10 µM) of 8.63% and a viability, T/C (second compound 0.0949 µM, first compound 0.0316 µM) of 19.2%. The viability, T/C (second compound 0.0949 µM, first compound 0.1 µM) was 14.8%, the viability, T/C (second compound 0.0949 µM, first compound 0.316 µM) was 8.67% and the viability, T/C (second compound 0.0949 µM, first compound 1 µM) was 5.66%. The viability, T/C (second compound 0.0949 µM, first compound 3.16 µM) was 5.2%, the viability, T/C (second compound 0.0949 µM, first compound 10 µM) was 4.15% and the viability, T/C (second compound 0.3 µM, first compound 0.0316 µM) was 2.97%. It also gave a viability, T/C (second compound 0.3 µM, first compound 0.1 µM) of 3.59%, a viability, T/C (second compound 0.3 µM, first compound 0.316 µM) of 3.1% and a viability, T/C (second compound 0.3 µM, first compound 1 µM) of 3.16%. For the same molecule, the viability, T/C (second compound 0.3 µM, first compound 3.16 µM) was 3.27% and the viability, T/C (second compound 0.3 µM, first compound 10 µM) was 3.11%.
For `Cn1ncnc1[C@H]1c2n[nH]c(=O)c3cc(F)cc(c23)N[C@@H]1c1ccc(F)cc1` + CC[C@@]1(O)C(=O)OCc2c1cc1n(c2=O)Cc2cc3c(CN(C)C)c(O)ccc3nc2-1, the IC50 (second compound 0.003 µM) was 1.62 µM, the IC50 (second compound 0.00949 µM) was 1.1 µM and the IC50 (second compound 0.03 µM) was 0.0539 µM. The IC50 (second compound 0.0949 µM) was under 0.00949 µM, the IC50 (second compound 0.3 µM) was under 0.00949 µM and the viability, T/C (second compound 0.003 µM, first compound 0.00949 µM) was 93.6%. For the same molecule, the viability, T/C (second compound 0.003 µM, first compound 0.03 µM) was 97.7%, the viability, T/C (second compound 0.003 µM, first compound 0.0949 µM) was 91.4% and the viability, T/C (second compound 0.003 µM, first compound 0.3 µM) was 96.6%. For the same molecule, the viability, T/C (second compound 0.003 µM, first compound 0.949 µM) was 83.3%, the viability, T/C (second compound 0.003 µM, first compound 3 µM) was 11.1% and the viability, T/C (second compound 0.00949 µM, first compound 0.00949 µM) was 100%. The viability, T/C (second compound 0.00949 µM, first compound 0.03 µM) was 97.6%, the viability, T/C (second compound 0.00949 µM, first compound 0.0949 µM) was 90.8% and the viability, T/C (second compound 0.00949 µM, first compound 0.3 µM) was 92.6%. It also gave a viability, T/C (second compound 0.00949 µM, first compound 0.949 µM) of 56.1%, a viability, T/C (second compound 0.00949 µM, first compound 3 µM) of 7.96% and a viability, T/C (second compound 0.03 µM, first compound 0.00949 µM) of 63.4%. The viability, T/C (second compound 0.03 µM, first compound 0.03 µM) was 59.5%, the viability, T/C (second compound 0.03 µM, first compound 0.0949 µM) was 41.3% and the viability, T/C (second compound 0.03 µM, first compound 0.3 µM) was 31.1%. The viability, T/C (second compound 0.03 µM, first compound 0.949 µM) was 18.3%, the viability, T/C (second compound 0.03 µM, first compound 3 µM) was 2.95% and the viability, T/C (second compound 0.0949 µM, first compound 0.00949 µM) was 13.1%. It also gave a viability, T/C (second compound 0.0949 µM, first compound 0.03 µM) of 9.39%, a viability, T/C (second compound 0.0949 µM, first compound 0.0949 µM) of 12.7% and a viability, T/C (second compound 0.0949 µM, first compound 0.3 µM) of 8.01%. The viability, T/C (second compound 0.0949 µM, first compound 0.949 µM) was 5.35%, the viability, T/C (second compound 0.0949 µM, first compound 3 µM) was 1.86% and the viability, T/C (second compound 0.3 µM, first compound 0.00949 µM) was 3.53%. For the same molecule, the viability, T/C (second compound 0.3 µM, first compound 0.03 µM) was 3.12%, the viability, T/C (second compound 0.3 µM, first compound 0.0949 µM) was 3.64% and the viability, T/C (second compound 0.3 µM, first compound 0.3 µM) was 3.26%. The viability, T/C (second compound 0.3 µM, first compound 0.949 µM) was 2.39% and the viability, T/C (second compound 0.3 µM, first compound 3 µM) was 1.17%.
`COc1cc(C)[nH]c(=O)c1CN1CCc2c(Cl)cc(C(OC)C3COC3)c(Cl)c2C1=O` (stereo not given) + COc1cc2c(cc1O)CCNC21CSC2c3c(OC(C)=O)c(C)c4c(c3C(COC1=O)N1C(O)C3Cc5cc(C)c(OC)c(O)c5C(C21)N3C)OCO4 was tested, and the IC50 (second compound 30 pM) was over 10 µM, the IC50 (second compound 94.9 pM) was over 10 µM and the IC50 (second compound 0.0003 µM) was over 10 µM. The IC50 (second compound 0.000949 µM) was under 0.0316 µM, the IC50 (second compound 0.003 µM) was under 0.0316 µM and the viability, T/C (second compound 30 pM, first compound 0.0316 µM) was 112%. The viability, T/C (second compound 30 pM, first compound 0.1 µM) was 106%, the viability, T/C (second compound 30 pM, first compound 0.316 µM) was 96.1% and the viability, T/C (second compound 30 pM, first compound 1 µM) was 97.2%. It also gave a viability, T/C (second compound 30 pM, first compound 3.16 µM) of 94.2%, a viability, T/C (second compound 30 pM, first compound 10 µM) of 93.3% and a viability, T/C (second compound 94.9 pM, first compound 0.0316 µM) of 112%. For the same molecule, the viability, T/C (second compound 94.9 pM, first compound 0.1 µM) was 111%, the viability, T/C (second compound 94.9 pM, first compound 0.316 µM) was 102% and the viability, T/C (second compound 94.9 pM, first compound 1 µM) was 99.2%. For the same molecule, the viability, T/C (second compound 94.9 pM, first compound 3.16 µM) was 90.8%, the viability, T/C (second compound 94.9 pM, first compound 10 µM) was 95.8% and the viability, T/C (second compound 0.0003 µM, first compound 0.0316 µM) was 95.4%. For the same molecule, the viability, T/C (second compound 0.0003 µM, first compound 0.1 µM) was 85.8%, the viability, T/C (second compound 0.0003 µM, first compound 0.316 µM) was 84.3% and the viability, T/C (second compound 0.0003 µM, first compound 1 µM) was 79.9%. The viability, T/C (second compound 0.0003 µM, first compound 3.16 µM) was 64%, the viability, T/C (second compound 0.0003 µM, first compound 10 µM) was 53.1% and the viability, T/C (second compound 0.000949 µM, first compound 0.0316 µM) was 0.28%. The viability, T/C (second compound 0.000949 µM, first compound 0.1 µM) was 0.39%, the viability, T/C (second compound 0.000949 µM, first compound 0.316 µM) was 0.45% and the viability, T/C (second compound 0.000949 µM, first compound 1 µM) was 0.46%. The viability, T/C (second compound 0.000949 µM, first compound 3.16 µM) was 0.29%, the viability, T/C (second compound 0.000949 µM, first compound 10 µM) was 0.33% and the viability, T/C [1] was 1.45%. It also gave a viability, T/C [2] of 1.46%, a viability, T/C [3] of 1.03% and a viability, T/C [4] of 1.48%. For the same molecule, the viability, T/C [5] was 1.6% and the viability, T/C [6] was 2.3%.
